Test results taken from paper PMC11783601, “Analogue-Sensitive Inhibition of Histone Demethylases Uncovers Member-Specific Function in Ribosomal Protein Synthesis” (Journal of the American Chemical Society, 2025).
“Also recorded” adds a separate entry of the source.

System: rRNA transcription in HEK293T cells
Experiment: Fixed cell immunofluorescence staining for H3K9me3 and 5FU (BrdU antibody) incorporation into rRNA
Assay type: cell-based, human
Experimental: Upregulation of protein synthesis is linked to enhanced ribosomal biogenesis driven by the expression and coordinated assembly of the ribosomal RNAs (rRNAs). To systematically investigate the role of KDM4A in rRNA activation, HEK293T cells expressing wild type KDM4A or asKDM4A were briefly (∼15 min) exposed to 5-fluorouridine (5FU), a uridine analogue known to rapidly incorporate into nascent RNAs, in the presence of cell-permeable n-octyl IOX1 or NOL derivative 6B, respectively (Figure 6A). Given that there are about 350 copies of rDNA in the human genome, brief exposure to 5FU ensures the labeling of rRNAs primarily.[49][52] The cells were then fixed and stained with H3K9me3 antibody, along with BrdU antibody which recognizes 5FU, to examine any correlation between histone demethylation and rRNA expression using high-resolution immunofluorescence imaging. Both wild type KDM4A and F185A mutant led to robust increase in 5FU incorporated rRNA levels, while reduction in H3K9me3 signals was observed (Figures 6B,C and S36). […]
19. Fixed cell immunofluorescence staining
Cells were grown on poly-D-lysine (Gibco A3890401) treated glass coverslips (ThermoScientific 12-545-81P) overnight and transfected the next day with 300 ng KDM4A WT/F185A using […] of lipofectamine 2000 (Invitrogen 11668019). The cells were incubated overnight and treated with indicated inhibitor at varying time points. When probing rRNA transcription, cells were incubated with 2 mM 5-Fluorouridine (Sigma F5130) for 15 minutes. […]
20. Quantification of fixed-cell imaging data
TIF images obtained from confocal microscopy experiments were quantified in ImageJ. […]
The mean fluorescent signal was then measured. […]
For the time dependent imaging, cells containing the transfected KDM4A mutant were identified by their HA signal. […] The mean signal was then measured for H3K9me3 or BrdU only within the cells expressing the KDM4A mutant. To compare changes in H3K9me3 or BrdU between trials, the quantification values were normalized to the mean signal at t=0. […]

Which “5FU incorporation into rRNA” value (HEK293T cells expressing F185A) does the source give for `CC(C)CC(NC(=O)C(=O)OCc1cccc(C(F)(F)F)c1)C(=O)O` [6B, L-Leu TFMB-ester NOG] here?
The value was “attenuated 5FU incorporation in a dose–response manner”.

And the H3K9me3 levels (HEK293T cells expressing F185A)?
Its H3K9me3 levels is “re-emergence of H3K9me3 levels”.

How did the “histone demethylation and 5FU incorporation” value (HEK293T cells overexpressing wild type KDM4A, 10 µM n-octyl IOX1) turn out when `CCCCCCCCOC(=O)c1ccc(O)c2ncccc12` [n-octyl IOX1] was run?
The value was “inhibited; also recorded: repressed histone demethylation and 5FU incorporation”.
